According to patent publication US20070014718A1, “Kits for gastric emptying measurement” (Atomic Energy Council - Institute of Nuclear Energy Research, priority 2005, published 2007):
Where two headings read alike, the source gives them in different places.

What was measured:
[1] = Shelf-life / chemical stability on storage; type: physicochemical; conditions: stored at a room temperature
Description: Please refer to FIG. 1 and FIG. 2, which are views showing a kit for a gastric emptying measurement and isotope tracer retention in a solid phase of a test meal, according to the present invention, where isotope tracer retention percentage is obtained in FIG. 2 in vitro gastric digest at pH 2.3 to imitate the gastric condition after administering the test meal. […] A standardized recipe is provided to clinicians in the test meal, which has fixed proportions of carbohydrate, protein, and fat. The raw ingredients in the test meal include a lyophilized egg flour. The characteristic is that the isotope tracer 2 is coagulated with albumin of the egg flour into a solid form at more than 75° C., which means the isotope tracer is well incorporated into a food product. More than 90% of the isotope tracer is retained in a mimic gastric fluid at 35˜39° C. for three hours. […] More than 98% of the Tc-99 m phytate is retained in a mimic gastric fluid at 35˜39° C. for 4 hours. More than 90% of the Tc-99 m DTPA is retained in a mimic gastric fluid at 35˜39° C. for 3 hours The dry mix 1 comprises egg powder (7.4%), all purpose flour (19.6%), glutinous rice powder (3.9%), whole milk powder (35.7%), levulose (fructose) flour (8%), foaming powder (3%), cream powder (22%), cream fragrance powder (0.2%), and salt (0.2%), having a most preferred calorie of about 289.5±12.5 kcal. […]

[2] = for % ^13C (dose/hr): breath, patient X, 50 mg
Protocol: The test meal is administered after an overnight fast along with 100 mL of water within 10 minutes. The first one of the breath samples is collected before the test meal is administered so that a baseline is obtained. And the rest of the breath samples are collected with an 15-minute intervals during 4 hours after the test meal is administered. A measurement can be conveniently done using an isotope ratio mass spectrometer. The results obtained are then expressed in a δ^13C value (^13C/^12C). […] The ^13CO2 excretion parameters are derived from the chi-square distribution in statistics and the equation is expressed as follows. CD=m(1−e^−kt)^β , where CD is the cumulative percentage of the administered dose; t is the time; and, m is the total cumulative percentage of the dose recovered.
A non-linear regression analysis is performed on the originally measured data to obtain values of the m, k, and β for each individual breath test.
The half emptying time is calculated by making CD equal to m/2 in the CD equation: [formula] B. Lag Phase:
The lag phase for the breath test has been defined, which is expressed as follows: tlag=1/k ln β
The % ^13C dose/hr is calculated by the following equation Eq. 1: [formula] • The definition of mmol ^13C excess in breath (a) and mmol ^13C excess administered (b) were shown below: [formula] • 0.0112372 is the ratio of ^13C/^12C of PDB • % ^13Ct and % ^13Ct0: the concentration of ^13C at time t and t0 (i.e. time zero) • δt=δ^13C value at time t (% ^13Ct−% ^13Ct0) is also called “^13C atom percent excess” [formula] • % ^13Csubstr.=% ^13C present in substrate • M=molar mass of substrate • m=amount of substrate • n=number of atoms, ^13C-labelled • (13) The % ^13C cumulative dose is derived numerically from the % ^13C dose/hr data and is calculated from the following Eq. 2, which informs about the global process. [formula] • n=number of samples per hour • n=4, if a breath sample is taken every 15 minutes • ti=time i
• (14) Mathematically analyzing the ^13CO2 excretion curves with a Sigma plot software. […] All of these parameters were determined by a non-linear regression analysis. The half emptying time is calculated by making CD equal to m/2 in the CD equation and being defined by [formula] • . […] The lag phase for the breath test is expressed as tlag=1/k ln β (Eq. 4).

[3] = In-vitro gastric simulation: isotope tracer retention in solid phase of test meal; type: in vitro ADME; conditions: mimic gastric fluid
Protocol: After chewing the test meal, it is put into a semi-permeable membrane (Spectra/PorMembrane MWCO 3,500, 54 mm×150 mm) incubated and shook with a simulated gastric juice (2 g (gram) of sodium chloride; 3.2 g of pepsin; and, 7 mL of HCl in 1000 mL, pH 1.2) at 37±2° C. having different time intervals. 5 mL aliquot of the liquid phase were removed at regular 60 min intervals, centrifuged and aliquots of the supernatants removed for C-13 glycine quantification with Liquid Chromatography/Mass Spectrometry.
To assess the extent of Tc-99 m phytate retention in the solid phase of the test meal, a simulated gastric digest is made. A muffin is prepared as described above with 1 mCi of a Tc-99 m phytate, which is equivalent to 156.25 μg (microgram) with a specific activity of 10.06 mCi/μmol (μmol, micromolar) mixed with the dry mix 1 and water. […] 5 mL aliquot of the liquid phase were removed at regular 60 min intervals, centrifuged and aliquots of the supernatants removed for liquid scintillation counting Results are then expressed as a percentage, P %, of the initial amount of a radioactivity added. […]

NC[13C](=O)O [^13C glycine]
shelf-life [1]: more than 5 year
% ^13C (dose/hr) ([2]; sampling time 15 min): 1.104 % ^13C dose/hr
% ^13C (dose/hr) ([2]; sampling time 30 min): 2.802 % ^13C dose/hr
% ^13C (dose/hr) ([2]; sampling time 45 min): 3.905 % ^13C dose/hr
% ^13C (dose/hr) ([2]; sampling time 60 min): 4.754 % ^13C dose/hr
% ^13C (dose/hr) ([2]; sampling time 75 min): 5.603 % ^13C dose/hr
% ^13C (dose/hr) ([2]; sampling time 90 min): 5.093 % ^13C dose/hr
% ^13C (dose/hr) ([2]; sampling time 105 min): 5.857 % ^13C dose/hr
% ^13C (dose/hr) ([2]; sampling time 120 min): 6.027 % ^13C dose/hr
% ^13C (dose/hr) ([2]; sampling time 135 min): 6.706 % ^13C dose/hr
% ^13C (dose/hr) ([2]; sampling time 150 min): 5.857 % ^13C dose/hr
% ^13C (dose/hr) ([2]; sampling time 165 min): 5.263 % ^13C dose/hr
% ^13C (dose/hr) ([2]; sampling time 180 min): 4.414 % ^13C dose/hr
% ^13C (dose/hr) ([2]; sampling time 195 min): 3.65 % ^13C dose/hr
% ^13C (dose/hr) ([2]; sampling time 210 min): 3.65 % ^13C dose/hr
% ^13C (dose/hr) ([2]; sampling time 225 min): 3.056 % ^13C dose/hr
% ^13C (dose/hr) ([2]; sampling time 240 min): 2.547 % ^13C dose/hr
k ([2]; human, in vivo): 0.0101
m (total cumulative percentage of the dose recovered) ([2]; human, in vivo): 22.844
β ([2]; human, in vivo): 2.8256

O=C([O-])CN(CCN(CC(=O)[O-])CC(=O)[O-])CCN(CC(=O)[O-])CC(=O)[O-].[99Tc+4] [Tc-99 m DTPA, Tc-99 m DTPA (diethyl-triamine-pentaacetic acid)]
isotope tracer retained (incorporated) in the test meal ([3]; 35˜39° C. (37±2° C.), 4 hours): more than 87%
isotope tracer retained in the test meal ([3]; 35˜39° C., 3 hours): More than 90%
